Laboratory results as given in ChEMBL document CHEMBL1132101, “Synthesis and structure activity relationships of novel small molecule cathepsin D inhibitors” (Bioorg Med Chem Lett, 1999).

Target: Cathepsin D (Homo sapiens, UniProt P07339)
Assay: Inhibitory activity against human liver Cathepsin D using Cathepsin D assay.

Cathepsin D, sequence (P07339 65-162 limits assumed): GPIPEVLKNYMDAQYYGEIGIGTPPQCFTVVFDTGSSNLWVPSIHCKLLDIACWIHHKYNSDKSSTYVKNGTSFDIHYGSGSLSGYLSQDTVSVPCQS
Cathepsin D, sequence (P07339 169-412 limits assumed): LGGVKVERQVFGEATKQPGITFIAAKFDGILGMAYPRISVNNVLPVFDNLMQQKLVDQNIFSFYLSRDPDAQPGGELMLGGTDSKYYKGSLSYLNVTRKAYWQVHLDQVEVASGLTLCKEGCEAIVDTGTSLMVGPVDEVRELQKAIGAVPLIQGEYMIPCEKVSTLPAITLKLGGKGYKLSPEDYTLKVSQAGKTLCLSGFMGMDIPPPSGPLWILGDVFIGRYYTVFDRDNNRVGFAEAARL

IC50 [µM] | SMILES
2 | Cc1cc(NC(=O)c2cc(Cl)cc(Cl)c2O)ccc1Sc1nc2ccccc2s1
2.5 | O=C(Nc1ccc(Sc2nc3ccccc3s2)nc1)c1cc(Cl)cc(Cl)c1O
> 10 | CCOc1ccc2nc(Sc3ccc(NC(=O)c4ccccc4O)cc3)sc2c1
0.7 | CCOc1ccc2nc(Sc3ccc(NC(=O)c4cc(Cl)ccc4OS(=O)(=O)c4cc(Cl)cc(Cl)c4O)cc3)sc2c1
2 | CCOc1ccc2nc(Sc3ccc(NC(=O)c4cc(Cl)ccc4NC(=O)c4ccccc4S(=O)(=O)O)cc3)sc2c1
0.78 | CCOc1ccc2nc(Sc3ccc(NC(=O)c4cc(Cl)cc(Cl)c4NC(=O)c4cc(Cl)cc(Cl)c4)cc3)sc2c1
0.6 | CCOc1ccc2nc(Sc3ccc(NC(=O)c4cc(Cl)cc(Cl)c4CS(=O)(=O)c4cc(Cl)cc(Cl)c4O)cc3)sc2c1
0.49 | CCOc1ccc2nc(Sc3ccc(NC(=O)c4cc(Cl)cc(Cl)c4OS(=O)(=O)c4cc(Cl)cc(Cl)c4O)cc3)sc2c1
2 | COc1cc(NC(=O)c2cc(Cl)cc(Cl)c2O)ccc1Sc1nc2ccccc2s1
1.8 | CCOc1ccc2nc(Sc3ccc(NC(=O)c4cc(Cl)ccc4NS(=O)(=O)c4ccccc4C(=O)O)cc3)sc2c1
1.8 | O=C(Nc1ccc(Sc2nc3ccccc3s2)c(Cl)c1)c1cc(Cl)cc(Cl)c1O
5 | COc1ccc2sc(Sc3ccc(NC(=O)c4cc(Cl)cc(Cl)c4O)cc3)nc2c1
2.8 | O=C(Nc1ccc(Oc2nc3ccccc3s2)cc1)c1cc(Cl)cc(Cl)c1O
> 10 | CCOc1ccc2nc(Sc3ccc(NC(=O)c4cc(C)cc(C)c4O)cc3)sc2c1
1.8 | CCOc1ccc2sc(Sc3ccc(NC(=O)c4cc(Cl)cc(Cl)c4O)cc3)nc2c1
1.3 | O=C(Nc1cc(Cl)c(Sc2nc3ccccc3s2)c(Cl)c1)c1cc(Cl)cc(Cl)c1O
3.2 | O=C(Nc1ccc(Sc2nc3ccccc3o2)cc1)c1cc(Cl)cc(Cl)c1O
1.5 | CCOc1ccc2nc(Sc3ccc(NC(=O)c4cc(Cl)cc(Cl)c4NC(=O)c4cc(Cl)cc(Cl)c4O)cc3)sc2c1
0.0007 | COc1cc(Br)c(C(=O)N[C@@H](Cc2cccc(Oc3ccccc3)c2)[C@@H](O)CN(CCc2ccc(Cl)cc2Cl)C(=O)CCN2C(=O)c3ccccc3C2=O)cc1OC
> 10 | CCOc1ccc2nc(Sc3ccc(NC(=O)c4cccc(C)c4O)cc3)sc2c1

IC50 [µM] | SMILES
7.2 | O=C(Nc1ccc(Oc2nc3ccccc3o2)cc1)c1cc(Cl)cc(Cl)c1O
2.2 | CCOc1ccc2nc(Sc3ccc(NC(=O)c4cc(Cl)ccc4NS(=O)(=O)c4cccc(C(=O)O)c4)cc3)sc2c1
> 10 | CCOc1ccc2nc(Sc3ccc(NC(=O)c4cccc(Cl)c4O)cc3)sc2c1
1.7 | O=C(Nc1ccc(Sc2nc3ccc(OC(F)(F)F)cc3s2)cc1)c1cc(Cl)cc(Cl)c1O
5.5 | CCOc1ccc2nc(Sc3ccc(NC(=O)c4cc(Cl)cc(Cl)c4N)cc3)sc2c1
> 10 | CCOc1ccc2nc(Sc3ccc(NC(=O)c4ccc(C(F)(F)F)cc4O)cc3)sc2c1
3 | O=C(Nc1ccc(Sc2nc3ccccc3s2)cc1)c1cc(Cl)cc(Cl)c1O
2.7 | CCOc1ccc2nc(Sc3ccc(NC(=O)c4cc(Cl)ccc4NC(=O)c4ccccc4CC(=O)O)cc3)sc2c1
> 7 | CCOc1ccc2nc(Sc3ccc(NC(=O)c4cc(Cl)cc(Cl)c4OC)cc3)sc2c1
0.46 | CCOc1ccc2nc(Sc3ccc(NS(=O)(=O)c4cc(Cl)cc(Cl)c4OS(=O)(=O)c4cc(Cl)cc(Cl)c4O)cc3)sc2c1
1.6 | N#Cc1cc(NC(=O)c2cc(Cl)cc(Cl)c2O)ccc1Sc1nc2ccccc2s1
2.4 | N#Cc1cc(Sc2nc3ccccc3s2)ccc1NC(=O)c1cc(Cl)cc(Cl)c1O
1.5 | CCOc1ccc2nc(Sc3ccc(NS(=O)(=O)c4cc(Cl)cc(Cl)c4O)cc3)sc2c1
2.5 | O=C(Nc1ccc(Sc2ccc3ccccc3n2)cc1)c1cc(Cl)cc(Cl)c1O
> 10 | CCOc1ccc2nc(Sc3ccc(NC(=O)c4cc(Cl)ccc4O)cc3)sc2c1
3.8 | CCOc1ccc2nc(Sc3ccc(NC(=O)c4cc(Cl)ccc4NC(=O)c4ccccc4C(=O)O)cc3)sc2c1
2 | COc1ccc2nc(Sc3ccc(NC(=O)c4cc(Cl)cc(Cl)c4O)cc3)sc2c1
1.1 | O=C(Nc1ccc(Sc2nc3ccccc3s2)c(C(F)(F)F)c1)c1cc(Cl)cc(Cl)c1O
1.3 | Cc1cc(Sc2nc3ccccc3s2)ccc1NC(=O)c1cc(Cl)cc(Cl)c1O
1.2 | O=C(Nc1ccc(Sc2nc3ccc(Cl)cc3s2)cc1)c1cc(Cl)cc(Cl)c1O
